Test results taken from patent publication US20160346389A1, “MODIFIED PARAMAGNETIC NANOPARTICLES FOR TARGETED DELIVERY OF THERAPEUTICS AND METHODS THEREOF” (ALBERT EINSTEIN COLLEGE OF MEDICINE INC., priority 2013, published 2016).

Experiments:
[1] = system: human breast cancer xenographs; experiment: MRI of magnetic field induced localization of PMNPs in breast cancer xenograft mice; format: in vivo, mouse
Procedure: FIGS. 3(A-D). […] By applying a magnet field for 30 minutes at hind end (blue arrows), the enhanced image of hind-end tumor is observed (3B). The enhanced image of the tumor persists for at least several hours. […] The PMNPs are concentrated at site of a lower abdominal mammary tumor (FIG. 3C) using an external magnetic field placed over the tumor for 30 minutes. […] Imaging was performed over several hours without taking the mouse out of MRI machine thereby maintaining all of the imaging parameters.
FIGS. 4(A-B). Compares the MRI contrast data between […] and gadolinium oxide-based PMNPs.
In FIG. 3 are presented results on magnetic immobilization of gadolinium-based PMNPs in a mouse with numerous human breast cancer xenographs. There is no image enhancement for any of the multiple tumors located in different parts of the mouse including one at hind end (green-arrow at bottom of the picture marked tumor). The mouse was then removed and then subjected to thirty minutes of having a magnetic field placed over the tumor demarked by the green arrow. […] The intensity of MRI signal is very similar at both tumor and bladder. This is very different than observed in case of […] where there is a transient image of the bladder and no site specific localization of the contrast agent in any one of the tumors. […]

[2] = system: MoB-1833 mammary xenografted tumor; experiment: ADM-PMNP plus magnetic field on xenografted human breast cancer, bioluminescence; format: in vivo, mouse; conditions: comparable amount of free drug
Procedure: FIG. 8 Anti-tumor effect of IV infused Adriamycin loaded PMNP (ADM-PMNP) plus magnetic field treatment on xenografted human breast cancer. Human breast cancer was s.c. xenografted in a female nude mouse. The mouse was injected with 1 mg/kg ADM-PMNP and the tumor was treated with magnetic field for 30 minutes following each injection The mouse was imaged before and after the treatment, the luminescent signals were quantitatively analyzed for change of tumor size. At the end of the treatment, there was a >80% decrease of luminescent signaling in the tumor. The signal recovered partially 3 days after the treatment was ended.
Signal intensity in treated tumor was similar to that in bladder, a major route of PMNP elimination. Next, to assess drug delivery and anti-tumor efficacy, MoB-1833 mammary xenografted tumor-bearing mice were infused with ADM-coated PMNP (ADM-PMNP). ADM use in chemotherapy is limited due to systemic toxicity and it is therefore an excellent model drug for evaluation of the potentially utility of our PMNP platform. […] This ADM dose is 5-20 times lower than doses of free ADM commonly used for in animal studies and similar to doses used clinically. The 4-day treatment achieved a 9-fold reduction in tumor mass (FIG. 8). Tumor rebound upon drug termination confirmed specificity of the drug effect. […] The necrosis was confirmed histologically (FIG. 9Bd-f). […]

[3] = system: human breast cancer line, MDA-MB-436; experiment: Tumor necrosis in xenografted human breast cancer; format: in vivo, mice; conditions: 1.0 mg/kg
[4] = Histopathological analysis of multiple tissues (toxicity); format: in vivo, mice; conditions: same dose (1 mg/kg BW)
Procedure: FIGS. 11(A-B). Systemic effect of the treatment. (A) Representative H&E staining of tissue sections from ADM-PMNP injected mice (1 mg/kg BW)(A). (B) inflammation and hyperplasia were found in colon from mice treated with free ADM (B-left) but not in mice injected with the same dose of ADM-PMNP (B-right).

[5] = Radiation protection by localized melanin; format: in vivo, rat; conditions: earlier studies
Excerpt: The same protocol used for curcumin also works for melanin resulting in melanin loaded OA-PMNPs. These particles have potential use as radioprotectants. The melanin loaded OA-PMNPs would be infused into the patient and then magnetically localized in healthy tissue surrounding the diseased tissue targeted for radiation treatment. […] Additionally melanin loaded PMNP can be used as targeted contrast agent for photo-acoustic based imaging.

[6] = system: U87 human glioblastoma cells; experiment: Cell viability assay, Presto Blue, 48 h; format: cell-based
Procedure: FIG. 22 Cytotoxicity of naked curcumin, curcumin conjugated PMNPs and Sol-Gel Nps and blanks (without curcumin) performed on U87 human glioblastoma cells after 48 hours of incubation. Note that 1 μM equivalent curcumin concentration corresponds to 16.7 μg/mL of nanoparticles. […] The data represents the mean±SE, n=3 to 18.
Cells were plated in 24-well trays and allowed to become confluent then incubated with naked curcumin or different curcumin NP concentrations for 48 h. Cell viability was quantified using Presto Blue (Invitrogen) an assay that contains a cell permeable resazurin-based solution that is modified by the reducing environment of the viable cell becoming highly fluorescent. Using a plate reader, cell viability was quantified after 0.5-1 hours of incubation with Presto Blue. All measurements were always accompanied by control wells and by calibration wells to account for background fluorescence using the same culture media and the same NP concentrations without the cells.

## CNC[C@H](O)[C@@H](O)[C@H](O)[C@H](O)CO.CNC[C@H](O)[C@@H](O)[C@H](O)[C@H](O)CO.O=C([O-])CN(CCN(CC(=O)[O-])CC(=O)O)CCN(CC(=O)[O-])CC(=O)O.[Gd+3]
[1]; FIG. 4
  persistence of MRI contrast: short lived
[1]; within a short time, no magnetic field
  distribution of contrast agent by MRI: concentrates in the bladder

## COc1cccc2c1C(=O)c1c(O)c3c(c(O)c1C2=O)C[C@@](O)(C(=O)CO)C[C@@H]3O[C@H]1C[C@H](N)[C@H](O)[C@H](C)O1 [Adriamycin, doxorubicin]
[2]
  anti-tumor effect: relatively ineffective
[3]
  tumor necrosis: smaller necrotic lesions
[4]
  colon histology: colonic inflammation and hyperplasia

## melanin
[5]
  radiation damage in irradiated legs: prevent radiation damage

## COc1cc(/C=C/C(=O)CC(=O)/C=C/c2ccc(O)c(OC)c2)ccc1O [Curcumin]
[6]
  equivalent Curcumin concentration that decreases cell viability by 20%: 5 µM
